Article PMC5012889, “Cardiac action of the first G protein biased small molecule apelin agonist” (Biochemical Pharmacology, 2016)
“Also recorded” adds a separate entry of the source. Structures can show the parent of a compound that is named as a salt. Where two headings read alike, the source gives them in different places.

Legend:
[1] = Thermodynamic solubility (Cyprotex); format: physicochemical; conditions: pH 7.4, saline or isotonic, thermodynamic from solid, pH7.4, potassium salt
Method: (§1) CMF-019 ((S)-3-[1-(1-Ethyl-propyl)-2-thiophen-2-ylmethyl-1H-benzoimidazole-5-carbonyl]-amino-5-methyl-hexanoic acid) has previously been prepared (compound number 107 from patent US20140094450, 2014) via a minor modification of the literature procedure (Fig. 2). […] Thermodynamic solubility (potassium salt) and an in vitro murine microsomal stability of CMF-019 were performed at Cyprotex (Macclesfield, UK).

[2] = Analysis of rat plasma samples by LC-MS/MS; format: in vivo; conditions: approx. 10 min after last of three cumulative i.v. doses, heparinised samples, n = 6
Method: Analysis of plasma samples was performed by Peakdale Molecular (Chapel-en-la-Frith, UK). End-point blood samples were taken from rats (n = 6) following completion of three cumulative doses of CMF-019 (as described before), approximately 10 min after the last intravenous administration. The blood was collected in heparin-coated vials and spun at low speed (2000 g, 5 min), the plasma supernatant was removed and frozen. Quantitative analysis was performed using LC-MS/MS with metaprolol as an internal standard and CMF-019 to quantify CMF-019 in the samples.

apelin receptor [3] = molecular target: T1, apelin receptor (Homo sapiens, UniProt P35414); assay: Bias calculations between pathways (ΔΔLogR, bias factors); conditions: compared to [Pyr1]apelin-13
T1 sequence (P35414 1-380): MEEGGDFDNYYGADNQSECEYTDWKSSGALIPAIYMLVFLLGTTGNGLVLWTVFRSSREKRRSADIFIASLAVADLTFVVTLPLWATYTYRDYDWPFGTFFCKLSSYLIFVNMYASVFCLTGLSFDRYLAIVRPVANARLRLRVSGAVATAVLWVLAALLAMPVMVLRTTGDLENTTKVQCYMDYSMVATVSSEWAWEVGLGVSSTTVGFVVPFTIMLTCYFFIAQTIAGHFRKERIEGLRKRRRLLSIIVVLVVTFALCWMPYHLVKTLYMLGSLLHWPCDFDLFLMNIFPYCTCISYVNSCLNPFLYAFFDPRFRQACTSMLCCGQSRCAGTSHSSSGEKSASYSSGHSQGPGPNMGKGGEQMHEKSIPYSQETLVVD
Method: β-Arrestin recruitment, β-arrestin mediated internalisation and cAMP assays were performed according to the manufacturer’s instructions (DiscoverX®, Fremont, CA) and as described previously [4].
All data are expressed as mean ± SEM values. Binding and cell-based experiments were performed in triplicate. For cell based assays, n-values are given as the number of replicates/number of experiments.

apelin receptor [4] = molecular target: T1, apelin receptor; conditions: compared to [Pyr1]apelin-13
Source text: Statistical significance was taken as 5%.

native apelin receptor = molecular target: T2, native apelin receptor (Homo sapiens, UniProt P35414); assay: Competition radioligand binding, human left ventricle homogenate
T2 sequence (P35414 1-380): T1 sequence (P35414 1-380)
Method: (§2) Initial binding assays were performed by Cerep (Celle L’Evescault, France) on Chinese Hamster Ovary (CHO-K1) cells expressing the human apelin receptor. Further experiments were performed on human homogenised left ventricle (HLV, 1.5 mg/ml) and rat and mouse whole heart homogenates to determine any species variability prior to in vivo experiments. […] Experiments were performed in triplicate and data analysed using GraphPad Prism 6 (GraphPad Software, Inc. La Jolla, USA). Binding affinities were calculated by the Cheng-Prusoff methodology using measured IC50 values.

[5] = In vitro murine microsomal stability (Cyprotex); format: in vitro ADME; conditions: mouse, murine microsomes
Method: as §1

apelin receptor [6] = molecular target: T3, apelin receptor (Mus musculus, UniProt Q9WV08); assay: Competition radioligand binding, mouse whole heart homogenate
T3 construct: from tissue; host or cells: mouse whole heart homogenate
T3 sequence (Q9WV08 1-377): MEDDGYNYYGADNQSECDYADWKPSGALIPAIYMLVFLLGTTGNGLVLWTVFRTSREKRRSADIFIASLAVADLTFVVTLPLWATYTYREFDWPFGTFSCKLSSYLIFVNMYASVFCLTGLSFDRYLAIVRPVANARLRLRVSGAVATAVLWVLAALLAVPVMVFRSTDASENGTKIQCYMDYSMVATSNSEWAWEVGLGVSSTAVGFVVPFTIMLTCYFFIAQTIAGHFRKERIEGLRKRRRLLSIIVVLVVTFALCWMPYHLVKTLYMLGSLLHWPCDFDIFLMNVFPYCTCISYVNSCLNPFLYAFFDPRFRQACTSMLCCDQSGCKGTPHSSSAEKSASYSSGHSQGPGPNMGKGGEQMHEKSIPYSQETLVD
Method: as §2

[7] = system: anaesthetised male Sprague–Dawley rats; assay: Rat heart catheterisation (left ventricle pressure-volume catheter), intravenous injection; format: in vivo; conditions: for increase in dP/dtMAX (cardiac contractility): cumulative bolus
Source text: Male Sprague-Dawley rats (273 ± 6 g; […] Temperature was monitored throughout the surgical procedure using a rectal probe. Prior to the start of surgery, it was ensured that pain reflexes had ceased by use of a hind-paw pinch test. The surgery was completed as previously described. In brief, the right external jugular vein was cannulated, flushed with heparin solution (2%, 0.9% saline, pH5, Macopharma) and the right common carotid artery located. The catheter (Millar Inc., SPR-869) was calibrated using the MPVS Ultra system (ADIstruments) before being inserted into the carotid and advanced to the left ventricle. Once a stable pressure-volume loop could be observed, the catheter was left in place for ten minutes. […] The effects on pressure and volume were measured and the heart rate monitored to determine and maintain a suitable depth of anaesthesia. […] Data were acquired using the MPVS Ultra system (ADIstruments) and analysed using LabChart 8 (ADIstruments). Values for the maximal change in left ventricular systolic pressure (LVSP), stroke volume, cardiac output, contractility ([…] lusitropy ([…]) from baseline were calculated from the raw data and compared. Following completion of the measurements the animal was euthanised by exsanguination under high flow isoflurane.

apelin receptor [8] = molecular target: T4, apelin receptor (Rattus norvegicus, UniProt Q9JHG3); assay: Competition radioligand binding, rat whole heart homogenate
T4 construct: from tissue; host or cells: rat whole heart homogenate
T4 sequence (Q9JHG3 1-377): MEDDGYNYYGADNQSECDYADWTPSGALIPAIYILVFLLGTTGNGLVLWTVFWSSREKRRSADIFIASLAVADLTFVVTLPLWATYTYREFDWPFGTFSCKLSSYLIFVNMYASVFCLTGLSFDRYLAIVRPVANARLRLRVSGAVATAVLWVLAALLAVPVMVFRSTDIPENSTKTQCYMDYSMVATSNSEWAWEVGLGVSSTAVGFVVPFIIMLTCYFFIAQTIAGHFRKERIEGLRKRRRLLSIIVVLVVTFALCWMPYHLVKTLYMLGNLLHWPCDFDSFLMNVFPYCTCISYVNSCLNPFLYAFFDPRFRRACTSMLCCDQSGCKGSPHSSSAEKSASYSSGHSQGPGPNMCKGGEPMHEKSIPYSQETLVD
Method: as §2

apelin receptor [9] = molecular target: T1, apelin receptor
Method: as §2

[10] = parameters: method as in earlier work; conditions: saline at room temperature; cited from earlier work
[11] = 500 nmol i.v., anaesthetised rats
[12] = 5000 nmol i.v., anaesthetised rats

Compound `CCC(CC)n1c(Cc2cccs2)nc2cc(C(=O)N[C@H](CC(=O)O)CC(C)C)ccc21` [CMF-019 (potassium salt)] has a solubility [1] of 2090 µg/mL and a mean plasma concentration [2] of 25.4 ± 2.5 µM.

In the case of `CCC(CC)n1c(Cc2cccs2)nc2cc(C(=O)N[C@H](CC(=O)O)CC(C)C)ccc21` [CMF-019, (S)-3-[1-(1-Ethyl-propyl)-2-thiophen-2-ylmethyl-1H-benzoimidazole-5-carbonyl]-amino-5-methyl-hexanoic acid], the “bias factor (BF)” value (apelin receptor [3]; cAMP (Gαi) over internalisation) is reported as 5828, the “bias factor (BF)” value (apelin receptor [3]; cAMP (Gαi) over β-arrestin) is reported as 398 and the ΔΔLogR (apelin receptor [3]; cAMP over internalisation) is reported as 3.77 ± 0.25. The ΔΔLogR (apelin receptor [3]; cAMP over β-arrestin) was 2.60 ± 0.24, the ΔΔLogR (apelin receptor [3]; β-arrestin over internalisation) was 1.17 ± 0.26 and the “relative effectiveness (RE)” value (apelin receptor [4]; cAMP) was 4.19. The ΔLogR (apelin receptor [4]; cAMP) was 0.62 ± 0.16, the “relative effectiveness (RE)” value (apelin receptor [4]; internalisation) was 7.19 × 10^−4 and the ΔLogR (apelin receptor [4]; internalisation) was −3.14 ± 0.19. The “relative effectiveness (RE)” value (apelin receptor [4]; β-arrestin) was 0.01, the ΔLogR (apelin receptor [4]; β-arrestin) was −1.98 ± 0.18 and the Ki (native apelin receptor) was 2.63 nM. The half-life [5] was 38 min, the Ki (apelin receptor [6]) was 1.95 nM and the “increase in cardiac output” value [7, 11] was 1210 ± 170 RVU/min. The “increase in stroke volume” value [7, 11] was 2.62 ± 0.31 RVU, the “increase in dP/dtMAX (cardiac contractility)” value [7, 11] was 606 ± 112 mmHg/s and the “increase in LVSP” value [7, 12] was 6.22 ± 1.98 mmHg. The “increase in dP/dtMAX (cardiac contractility)” value [7, 12] was 833 ± 152 mmHg/s, the adverse effects ([7]; any of the concentrations administered (50–5000 nmol i.v.)) was “No adverse effects were observed” and the “effect on dP/dtMIN (lusitropy)” value ([7]; i.v., anaesthetised rats) was “Neither [Pyr^1]apelin-13 nor CMF-019 altered the dP/dtMIN; also recorded: did not alter”. For the same compound, the “effect on heart rate” value ([7]; i.v., anaesthetised rats) was “without a change in heart rate”, the Ki (apelin receptor [8]) was 3.24 nM and the Ki (apelin receptor [9]) was 24.5 nM. It also gave a mean plasma concentration [2] of ~25 µM.

For `CC1=CC(=O)C(C2CCCCC2)=C/C1=N\OS(=O)(=O)c1ccccc1` [ML233], the solubility in saline [10] is given as “low solubility”.
